Laboratory results reported in ChEMBL document CHEMBL4261660, “Synthesis and biological evaluation of a trisaccharide repeating unit derivative of Streptococcus pneumoniae 19A capsular polysaccharide” (Bioorg Med Chem, 2018).

Tests used:
Oryctolagus cuniculus [1] = species: Oryctolagus cuniculus; experiment: Inhibition of binding of anti-19A rabbit polyclonal antibody to Streptococcus pneumoniae 19A capsular polysaccharide coated on to plates at 1 mg/ml after overnight incubation at 4 to 8 degC by competitive ELISA
[2] = Inhibition of binding of anti-19A rabbit polyclonal antibody to Streptococcus pneumoniae 19A capsular polysaccharide coated on to plates after overnight incubation at 4 to 8 degC by competitive ELISA; design: species or system Oryctolagus cuniculus
[3] = Inhibition of anti-19F rabbit polyclonal antibody binding to Streptococcus pneumoniae 19F capsular polysaccharide coated on to plates after overnight incubation ar 4 to 8 degC by competitive ELISA; design: species or system Oryctolagus cuniculus
Oryctolagus cuniculus [4] = species: Oryctolagus cuniculus; experiment: Inhibition of anti-19F rabbit polyclonal antibody binding to Streptococcus pneumoniae 19F capsular polysaccharide coated on to plates at 1 mg/ml after overnight incubation ar 4 to 8 degC by competitive ELISA

inhibition (Oryctolagus cuniculus [1]): 41%
EC50 [2]: 1.3 ×10⁻³ mg/ml
EC50 [3]: 2.7 ×10⁻² mg/ml
inhibition (Oryctolagus cuniculus [4]): 32%
SMILES: CC(=O)N[C@@H]1[C@H](O[C@H]2[C@H](O)[C@@H](O)[C@@H](O[C@@H]3[C@@H](O)[C@H](C)O[C@@H](OCCCN)[C@@H]3O)O[C@@H]2CO)O[C@H](CO)[C@@H](O)[C@@H]1O.Cl
